CC(C)(C)c1cc(CCC(=O)NCCCCCCNC(=O)CCc2cc(C(C)(C)C)c(O)c(C(C)(C)C)c2)cc(C(C)(C)C)c1O
solubility (mole fraction)
Details | 283.15 K | 288.15 K | 293.15 K | 298.15 K | 303.15 K | 308.15 K | 313.15 K | 318.15 K | 323.15 K
in acetone | 0.00214 | 0.00257 | 0.00297 | 0.00328 | 0.00419 | 0.00585 | 0.00747 | 0.01 | 0.0152
in ethanol | 0.00775 | 0.00841 | 0.00982 | 0.011 | 0.0126 | 0.0148 | 0.0178 | 0.0218 | 0.0264
in ethyl acetate | 0.000614 | 0.000852 | 0.00109 | 0.00123 | 0.00155 | 0.00192 | 0.00258 | 0.00376 | 0.00527
in ethyl formate | 0.00151 | 0.00205 | 0.00207 | 0.00254 | 0.00309 | 0.00406 | 0.00501 | 0.00622 | 0.00879
in isopropanol | 0.00326 | 0.00345 | 0.004 | 0.00459 | 0.00552 | 0.00688 | 0.00872 | 0.0107 | 0.0129
in methanol | 0.00197 | 0.0023 | 0.00263 | 0.0032 | 0.00388 | 0.00506 | 0.00666 | 0.00874 | 0.012
in methyl acetate | 0.000498 | 0.000804 | 0.000846 | 0.00107 | 0.00137 | 0.00185 | 0.00239 | 0.00359 | 0.00538
in n-propanol | 0.00711 | 0.00807 | 0.00974 | 0.0116 | 0.0128 | 0.0153 | 0.0183 | 0.0223 | 0.0254
